Read-outs that look alike come from different tables or passages of the source.

The text below walks through data of publication PMC6562672, “Dose-Dependent Sorafenib-Induced Immunosuppression Is Associated with Aberrant NFAT Activation and Expression of PD-1 in T Cells” (Cancers, 2019).

The conditions of data set [1]: cited from earlier work.
In another data set the test system is human T cells. The data set is described as follows: One-way mixed lymphocyte reaction (MLR), human T cells, CFSE. Type of data set: cell-based. The conditions noted are these: high dose (10 µM), 96 h. The protocol:
Flow cytometry acquisition and compensation was performed on a LSR Fortessa (BD Biosciences, San Jose, CA, USA). Analysis of listmode data was performed using Winlist 8.0 (Verity Software House, Inc., Topsham, ME, USA). Briefly, the viable responder lymphocytes were hierarchically gated for single, low side scatter, viable cells with absent CD45 labeling. The percentage of proliferating cells was determined based on CFSE dye dilution compared to the CFSE labeling intensity from the non-proliferating MLR negative control sample. The full list of antibodies and reagents used in assays is available in Table S1.
Mixed lymphocyte reactions were performed in human (human vs. human, Figure 1E) and woodchucks (woodchuck vs. human, Figure 1F). 10 mL peripheral blood from healthy donors and 3 mL woodchuck peripheral blood isolated. Stimulator cells (human cells for both assays) were irradiated at 40 Gy in a Mark I Cesium-137 irradiator for 20 min. Following irradiation, cells were stained for CD45-APC (BD Biosciences, San Jose, CA, USA). Responder cells (non-irradiated human or woodchuck cells) were labeled with CFSE (Thermo Fisher Scientific, Eugene, OR, USA). Target and responder cells were placed in a round bottom 96 well polypropylene plate at a 2:1 ratio in the presence of 0–10 µM sorafenib and incubated at 37 °C for 96 h. […]

The nature of data set [2]: Treatment toxicity in WHV-infected woodchucks (general performance, CBC, biochemistry). Type of data set: in vivo, woodchuck (Marmota monax). Here is the method: General performance statuses of animals were evaluated such as moving activity, appetite, defecation, urination, and weight changes regularly. In addition, CBC and blood biochemistry were measured two times per month during the course of experiment by ProCyte Hematology and Catalyst Chemistry Analyzers (IDEXX, Hoofddorp, The Netherlands).

In data set [3] the test system is HCC. Description: Tumor histology: H&E necrosis and CD3 immunohistochemistry. Type of data set: in vivo, woodchuck (Marmota monax). Here is the method:
Tumor specimens were diagnosed as HCC based on the established classification of neoplastic liver lesions. After standard processing and embedding in paraffin, 4 μm sections were prepared, deparaffinized, stained with hematoxylin-eosin (H&E), studied with a Zeiss Axio Imager A1 microscope (Carl Zeiss, Oberkochen, Germany) by a pathologist blinded to the treatment arm. Morphometric study of areas of necrosis was compared to the size of the tumor sections by counting view fields at medium objective magnification. IHC staining with mouse anti-rat CD3 (BD Biosciences, San Jose, CA, USA) was performed on […] paraffin sections of posttreatment tumor tissues obtained after tumor reached over 2 cm. Images of at least 7 randomly selected fields (unit area of each field, 0.34 mm^2) were captured by observers blinded to sample identity. Identical exposure times and image settings were used within each experiment. Images were analyzed with ImageJ software (http://rsb.info.nih.gov/ij, Bethesda, MD, USA).

Data set [4] relates to HCC. Description: Efficacy against HCC in WHV-infected woodchucks (ultrasound). The conditions noted are these: for median time from first detection of tumor to 2 cm HCC: placebo 55 days; for median time to tumor development: long-term, placebo 295 days, p = 0.35. Type of data set: in vivo, woodchuck (Marmota monax). An excerpt: Male and female eastern woodchucks (Marmota monax) from two different institutes were used. WHV-infected woodchucks from Cornell University (15) were used for a long-term efficacy study, and six woodchucks in a short-term efficacy study were bred at Roswell Park Comprehensive Cancer Institute Center. Woodchucks were infected at 3–5 days of age with dilute serum from standard infectious pools derived from WHV carriers. Pups were inoculated with diluted, pooled serum from WHV^+ animals. The inoculum was prepared from pooled serum of WHV^+ animals that is diluted aseptically 1:10 in PBS. In a biological safety cabinet, each pup is manually restrained and 100 microliters of inoculum is injected subcutaneously in the intrascapular region. Chronic infection was verified at approximately 3, 6, and 9 months of age by WHV viral titer status. Once the pups are confirmed WHV positive, they were monitored by ultrasound (Philips HDI 5000, Amsterdam, The Netherlands) to confirm the presence of HCC.
In total, 21 animals bearing one or more liver tumors were included in this study for 2 separate experiments. While receiving sorafenib or placebo, animals were monitored with ultrasound every 2 weeks for tumor development greater than 5 mm in diameter. […] Tumor volume was calculated using this formula: volume = shortest axis^2 × longest axis × 0.52.
All WHV carrier woodchucks were randomly divided into three groups such as placebo, low dose (2.5 mg/kg/day), and high dose (5.0 mg/kg/day) groups (n = 5 animals/group) in a long-term efficacy study based on clinical and preclinical studies. Also, a compartmental pharmacokinetic (PK) model was used to select the two lowest doses that can achieve exposure sufficient to inhibit pharmacodynamic targets. Experimental woodchucks were treated with placebo, 2.5 mg/kg, or 5.0 mg/kg sorafenib once daily with a 5 days on and 2 days off schedule. Animals were dosed orally until tumor development. Another experiment was performed with the low (2.5 mg/kg/day) and high (5.0 mg/kg/day) dose groups (n = 3 animals/group) to see the efficacy of short-term (90 days treatment) usage of sorafenib. The primary endpoint of the in vivo study was disease free survival (DFS), and DFS was measured from the date of randomization until the date of any liver tumor detection. The secondary endpoint was tumor size over 2 cm, which was measured from the date of first tumor detection. All experimental protocols were approved by IACUC.

With `CNC(=O)c1cc(Oc2ccc(NC(=O)Nc3ccc(Cl)c(C(F)(F)F)c3)cc2)ccn1` [sorafenib, Sorafenib], the “plasma concentration of sorafenib in clinical trials” value is “approximately 2 mg/L” in data set [1] (clinical trials) and 4 µM in data set [1] (conversion of 2 mg/L). In addition, the “time to steady-state concentrations” value in data set [1] (patients, multiple oral dosing) is listed as 7 days. For the same compound, the “MLR response (T cell proliferation)” value with human T cells is listed as “significant decrease”. Also, the “general performance change (moving activity, appetite, defecation, urination, weight changes)” value in data set [2] (2.5 and 5.0 mg/kg/day oral, all treatment groups) is “not detected”. Further, the “CBC and biochemistry analyses among the three groups” value in data set [2] (end of experiment, placebo vs 2.5 vs 5.0 mg/kg/day) is listed as “no statistical difference”. Moreover, the “necrotic change of HCC (H&E)” value is “significantly large necrotic change” in the data set with HCC [3] (high dose vs placebo, tumor over 2 cm, p = 0.02) and “no statistical difference” in the data set with HCC [3] (high vs low dose, p = 0.07). Further, the “CD3+ cell infiltration in tumors” value is “More CD3+ cells” in the data set on HCC [3] (low dose compared to high dose) and “no statistical difference” in the data set on HCC [3] (low dose vs placebo). Further, the “median time from first detection of tumor to 2 cm HCC” value in the data set on HCC [4] (2.5 mg/kg) worked out at 111 days; in the data set on HCC [4] (5 mg/kg), 42 days. Besides, the “median time to tumor development” value in the data set with HCC [4] (high dose 5.0 mg/kg/day) turned out to be 351 days; in the data set with HCC [4] (low dose 2.5 mg/kg/day), 384 days. Moreover, the tumor growth delay entry in the data set on HCC [4] (high dose vs placebo, p = 0.5) is “failed to show any tumor growth delay effect”; with HCC [4] (low dose vs placebo and high dose, p = 0.024) it was “significant tumor growth delay”. Besides, the “animals that developed HCC” value with HCC [4] (long-term treatment, regardless of doses of sorafenib (15 woodchucks incl. placebo)) came out at 100%. In addition, in the data set on HCC [4] (low dose 2.5 mg/kg/day compared to placebo and high dose groups), the “tumor size when first detected by ultrasound” value is reported as “smaller”. Also, the “tumor growth delay with low dose compared to high dose” value with HCC [4] (short-term usage, 90 days, n = 3/group) is listed as “not achieved”. In the data set on HCC [4] (sorafenib treatments compared to placebo), the “prevention of HCC and inhibition of WHV replication” value is given as “did not prevent HCC or inhibit WHV replication”.
